Like-named read-outs stand apart in the source and are kept apart here.
Key:
ADP-DnaK (WT, aa 1-638) = target: T1, ADP-DnaK (WT, aa 1-638) (Escherichia coli, UniProt P0A6Y8); experiment: ITC binding to ADP-bound full-length DnaK; set-up: species or system E. coli
T1 construct: Full-length recombinant proteins of HSP70 (aa 1-641) as well as DnaK (aa 1-638); His6 (N); made in house; host or cells: E. coli BL21 Star (DE3)
Experimental: For isothermal titration calorimetry studies, all HSP70 and DnaK variants were dialyzed extensively against the buffers as noted below under the section entitled “Isothermal Titration calorimetry Studies”. The dialyzed proteins were subsequently microcentrifugated at 15,000×g for 5 min at 4° C. and aliquots of the soluble proteins were stored at −80° C.
All ITC experiments were performed using a MicroCal VP-ITC isothermal titration calorimeter (MicroCal). Both full-length HSP70 and DnaK proteins and DnaK (aa 393-507) proteins were prepared in 1 mM Tris-HCl (pH 7.4) buffer containing 3% dimethylsulfoxide (DMSO). The HSP70 (aa 386-616) protein was prepared in buffer containing 3% DMSO and 10 mM Tris-HCl, pH 7. The syringe was loaded with purified protein in either 1 mM Tris-HCl (pH 7.4) buffer containing 3% DMSO or 10 mM Tris-HCl (pH 7) buffer containing 3% DMSO. […] All solutions were degassed for 5 min.
The titrations involving the full-length purified proteins were performed at 25° C. with injection volumes of 12 μL and a spacing of 300 s. The titrations involving the purified HSP70 (aa 386-616) and DnaK (aa 393-507) were performed at 42° C. with injection volumes of 12 μL and a spacing of 300 s. Heat from the pre-injection was not used during fitting. […]

[1] = tested on: human melanoma cell lines; experiment: MTT assays of human melanoma cell lines; assay type: cell-based; conditions: several melanoma cell lines, 72 h
Experimental: FIGS. 2A-2D illustrate the cytotoxicity of PET-16 to human tumor cells and its inhibition on E. coli growth. FIG. 2A is a line graph with data obtained from MTT assays of human melanoma cell lines treated with the indicated concentrations of PES or PET-16 for 72 h. The corresponding cell survival is normalized to vehicle (DMSO) treatment. Average and standard deviation (s.d.) from three independent experiments are shown. FIG. 2B are bar graphs of human melanoma (A875) cells and nontransformed human (IMR90) fibroblasts that were treated with DMSO, 10 μM PES or 10 μM PET-16 for 24 h. […] FIG. 2C is a line graph illustrating the growth of E. coli DH5α treated with different concentrations of PES or PET-16 for 6 h at 43° C. Error bars represent the s.d. of four independent experiments. FIG. 2D is a bar graph illustrating the growth of E. coli DH5α treated with DMSO, 30 μM PET-16 or 30 μM TPP for 6 h at 43° C. Error bars represent the s.d. of four independent experiments.
MTT assays of human melanoma cell lines, as indicated, treated with the indicated concentration of PET-16 for 72 hours. The corresponding cell survival is normalized to vehicle (DMSO) treatment. Average and standard deviation (s.d.) from three independent experiments are shown.

Cyclophilin D (Cyp-D) = experiment: Purified mitochondria from H1299 cells, western blot for Cyp-D; assay type: cell-based
Source text: FIGS. 5A-5F illustrates that PET-16 leads to loss of mitochondrial protein Cyclophilin D and impairs bioenergetics in tumor cells. FIGS. 5A-5D are western blots of HSP70, which is present at mitochondria of tumor H1299 cells but not in normal tissue, such as liver. The constitutively expressed 70 kDa family members, HSC70 and GRP75, are present in mitochondria of normal cells. Equal amounts of whole cell (WC)-, cytosolic (cyto)-, and mitochondrial (mito)-extracts prepared from cell lines H1299 (A, C) and MIA PaCa-2 (B) or normal (liver) cells (C, D) were examined by western blot analysis for the presence of the proteins indicated. […] Decreases of AlamarBlue® fluorescence, indicative of mitochondrial damage, are noted in PET-16-treated tumor cells (melanoma tumor cell line WM88 (-), melanoma tumor cell line WM3000 (×), melanoma tumor cell line WM852 (*), human melanoma 451 Lu cells (●), and melanoma tumor cell line WM989 (|), but not normal cells (nontransformed human fibroblasts (IMR90-♦) and primary melanocytes (▪)). Values are normalized to the vehicle-treated cells. Error bars represent standard deviation (s.d.) of four independent experiments. […]

HSP70 = HSP70 (Homo sapiens, UniProt P0DMV8); experiment: B-PES pull-down assay in cultured tumor cells; assay type: cell-based; set-up: endogenous in cells; conditions: H1299 cells pretreated with excess (8×) compound for 1 h, then 20 μM B-PES
HSP70, sequence (P0DMV8 whole entry, the tested form may be a part): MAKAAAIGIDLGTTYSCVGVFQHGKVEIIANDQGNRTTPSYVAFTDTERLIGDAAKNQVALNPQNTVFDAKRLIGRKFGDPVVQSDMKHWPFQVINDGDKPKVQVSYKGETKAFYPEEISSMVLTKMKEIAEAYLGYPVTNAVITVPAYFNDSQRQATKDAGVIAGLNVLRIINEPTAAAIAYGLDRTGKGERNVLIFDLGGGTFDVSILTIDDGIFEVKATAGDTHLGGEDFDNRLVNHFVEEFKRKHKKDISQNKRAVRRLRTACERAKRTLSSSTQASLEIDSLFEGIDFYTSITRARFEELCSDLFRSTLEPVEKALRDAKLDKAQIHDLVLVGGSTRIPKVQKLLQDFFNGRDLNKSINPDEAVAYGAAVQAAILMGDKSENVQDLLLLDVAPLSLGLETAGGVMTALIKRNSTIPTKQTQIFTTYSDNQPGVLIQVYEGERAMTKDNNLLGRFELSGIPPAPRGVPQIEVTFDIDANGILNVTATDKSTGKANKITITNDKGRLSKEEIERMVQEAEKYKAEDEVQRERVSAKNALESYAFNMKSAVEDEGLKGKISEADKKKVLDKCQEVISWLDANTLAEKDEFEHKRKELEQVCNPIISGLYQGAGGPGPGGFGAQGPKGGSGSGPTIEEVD
Source text: FIGS. 3A-3L illustrate that PET-16 binds directly to ADP-bound HSP70 and DnaK. Specifically, FIGS. 3A-3H are isothermal calorimetric titration (ITC) assays of the indicated compounds (NRLLLTG—SEQ ID NO: 7, PES or PET-16) with purified HSP70-ADP, DnaK-ADP or HSP70-ATP proteins. The data are representative of three independent experiments. FIGS. 3I and 3J are ITC assays for the interaction between HSP70 (aa 386-616 of SEQ ID NO: 2) protein and PET-16 (I) or TPP (J). Binding constants (Kd values) are shown (average and s.d. from three independent experiments). PET-16 also binds directly to the purified, full-length, nucleotide-free HSP70 protein, with a reported dissociation constant of 5.2+/−0.1 micromolar, which is the average and standard deviation from two independent experiments (data not shown). FIG. 3K is ITC assay of HSP70 protein preincubated with ADP and PES for 1 h. The mixture was titrated into the sample cell containing PET-16. The data are representative of three independent ITC experiments. FIG. 3L are western blots of human lung carcinoma (H1299) cells that were pretreated with DMSO or excess (8×) PET-16 for 1 h prior to the addition of 20 μM B-PES for 5 h and examined for the expression of HSP70 or BCL-xL. B-PES-containing complexes were captured by Avidin resins and immunoblotted either with anti-HSP70 or anti-BCL-xL antibody. […]

T1 sequence (P0A6Y8 whole entry, the tested form may be a part): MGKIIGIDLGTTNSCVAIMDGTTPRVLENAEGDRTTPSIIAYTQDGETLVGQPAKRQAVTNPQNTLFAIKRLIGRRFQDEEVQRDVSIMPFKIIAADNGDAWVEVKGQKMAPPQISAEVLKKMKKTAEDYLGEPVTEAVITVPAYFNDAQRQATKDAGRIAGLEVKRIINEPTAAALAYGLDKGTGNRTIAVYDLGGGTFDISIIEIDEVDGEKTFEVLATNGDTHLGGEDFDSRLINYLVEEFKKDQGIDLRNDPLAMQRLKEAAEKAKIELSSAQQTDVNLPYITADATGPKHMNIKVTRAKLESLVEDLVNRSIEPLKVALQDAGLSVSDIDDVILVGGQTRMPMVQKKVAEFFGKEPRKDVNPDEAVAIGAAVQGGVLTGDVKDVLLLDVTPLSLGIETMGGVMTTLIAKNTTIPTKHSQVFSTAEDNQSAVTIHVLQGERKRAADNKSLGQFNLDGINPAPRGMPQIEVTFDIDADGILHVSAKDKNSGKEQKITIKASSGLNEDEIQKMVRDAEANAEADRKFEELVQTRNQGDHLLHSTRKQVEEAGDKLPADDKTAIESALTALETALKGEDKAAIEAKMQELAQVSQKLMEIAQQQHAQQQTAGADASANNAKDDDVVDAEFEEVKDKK

SMILES	Kd (ADP-DnaK (WT, aa 1-638)) [µM]	IC50 [1] [µM]	abundance of Cyp-D in the soluble-protein fraction (Cyclophilin D (Cyp-D))	amount of HSP70 in complex with B-PES (HSP70)	Kd (ADP-DnaK (WT, aa 1-638); ITC, wild-type full-length ADP-bound DnaK, read-out: Kd) [µM]
C(#C[P+](c1ccccc1)(c1ccccc1)c1ccccc1)c1ccccc1.[Br-] [PET-16, triphenyl(phenylethynyl)phosphonium bromide]	~6	0.5 to 1.5	significantly reduced	clearly reduced	
NS(=O)(=O)C#Cc1ccccc1 [PES, 2-Phenylethynesulfonamide, reference compound]			not		~6.8

Source: patent US10010560B2, “Small molecule HSP70 inhibitors” (THE TRUSTEES OF THE UNIVERSITY OF PENNSYLVANIA, priority 2014, dated 2018)
